Measurements published in ChEMBL document CHEMBL5653615 (J Biol Chem, 2013).

Key:
[1] = target: Tyrosine-protein kinase receptor UFO (Homo sapiens) (UniProt P30530); experiment: Inhibition of human AXL at 18.6 nM by HotSpot assay relative to control
[2] = target: MAP kinase-interacting serine/threonine-protein kinase 1 (Homo sapiens) (UniProt Q9BUB5); experiment: Inhibition of human MNK1 at 18.6 nM by HotSpot assay relative to control
[3] = target: Serine/threonine-protein kinase N2 (Homo sapiens) (UniProt Q16513); experiment: Inhibition of human PRK2 at 18.6 nM by HotSpot assay relative to control
Serine/threonine-protein kinase N2 (Homo sapiens), sequence (Q16513 whole entry, looked up): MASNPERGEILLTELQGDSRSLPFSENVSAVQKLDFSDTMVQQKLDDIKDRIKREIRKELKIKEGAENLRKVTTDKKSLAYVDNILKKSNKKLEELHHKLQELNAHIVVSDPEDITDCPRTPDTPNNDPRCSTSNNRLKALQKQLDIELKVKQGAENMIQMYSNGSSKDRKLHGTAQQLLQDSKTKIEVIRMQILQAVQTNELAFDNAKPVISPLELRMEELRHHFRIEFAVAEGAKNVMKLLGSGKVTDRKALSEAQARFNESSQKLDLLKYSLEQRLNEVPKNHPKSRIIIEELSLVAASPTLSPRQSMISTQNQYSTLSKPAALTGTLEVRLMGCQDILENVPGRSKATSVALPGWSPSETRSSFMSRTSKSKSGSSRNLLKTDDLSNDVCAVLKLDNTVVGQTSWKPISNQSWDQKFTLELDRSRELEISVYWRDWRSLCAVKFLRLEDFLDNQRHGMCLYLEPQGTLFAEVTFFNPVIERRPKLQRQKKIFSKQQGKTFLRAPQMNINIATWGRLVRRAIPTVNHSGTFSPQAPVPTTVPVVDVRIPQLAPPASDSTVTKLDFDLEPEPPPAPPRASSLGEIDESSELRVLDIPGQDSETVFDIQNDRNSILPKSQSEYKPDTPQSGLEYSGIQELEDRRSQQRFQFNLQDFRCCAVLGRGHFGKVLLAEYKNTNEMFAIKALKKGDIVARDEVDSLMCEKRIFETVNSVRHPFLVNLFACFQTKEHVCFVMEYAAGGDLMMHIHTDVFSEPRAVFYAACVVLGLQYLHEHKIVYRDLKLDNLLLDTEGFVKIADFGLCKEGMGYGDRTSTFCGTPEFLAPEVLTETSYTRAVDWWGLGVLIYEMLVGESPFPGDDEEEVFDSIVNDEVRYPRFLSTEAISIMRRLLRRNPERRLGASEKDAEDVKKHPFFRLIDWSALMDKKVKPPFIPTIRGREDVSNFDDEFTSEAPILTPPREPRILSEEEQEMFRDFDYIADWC

[4] = target: Serine/threonine-protein kinase PAK 5 (Homo sapiens) (UniProt Q9P286); experiment: Inhibition of human PAK5 at 18.6 nM by HotSpot assay relative to control
Serine/threonine-protein kinase PAK 5 (Homo sapiens), sequence (Q9P286 whole entry, looked up): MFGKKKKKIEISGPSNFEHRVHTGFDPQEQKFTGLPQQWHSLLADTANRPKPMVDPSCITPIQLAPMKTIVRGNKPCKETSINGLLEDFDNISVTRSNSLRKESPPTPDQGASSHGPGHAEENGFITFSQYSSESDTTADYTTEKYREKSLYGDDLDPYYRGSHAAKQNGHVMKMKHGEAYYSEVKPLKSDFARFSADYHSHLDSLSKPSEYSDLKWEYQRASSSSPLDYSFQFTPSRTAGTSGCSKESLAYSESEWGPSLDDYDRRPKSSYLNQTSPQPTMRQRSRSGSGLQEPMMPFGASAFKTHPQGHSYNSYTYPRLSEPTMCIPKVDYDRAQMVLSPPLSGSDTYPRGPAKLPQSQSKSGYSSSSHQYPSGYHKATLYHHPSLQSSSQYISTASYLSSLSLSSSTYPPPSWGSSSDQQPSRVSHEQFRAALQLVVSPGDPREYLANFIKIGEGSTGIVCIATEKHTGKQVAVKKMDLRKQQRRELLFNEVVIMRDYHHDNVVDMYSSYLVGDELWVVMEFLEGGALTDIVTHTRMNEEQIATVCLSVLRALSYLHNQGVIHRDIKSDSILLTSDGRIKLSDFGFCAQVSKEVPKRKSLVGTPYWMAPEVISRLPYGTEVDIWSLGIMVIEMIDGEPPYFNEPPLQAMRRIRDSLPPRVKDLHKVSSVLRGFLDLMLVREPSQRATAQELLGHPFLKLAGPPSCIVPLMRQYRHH

[5] = target: T1, Myotonin-protein kinase (Homo sapiens) (UniProt Q09013); experiment: Inhibition of human DMPK at 18.6 nM by HotSpot assay relative to control
T1 sequence (whole entry): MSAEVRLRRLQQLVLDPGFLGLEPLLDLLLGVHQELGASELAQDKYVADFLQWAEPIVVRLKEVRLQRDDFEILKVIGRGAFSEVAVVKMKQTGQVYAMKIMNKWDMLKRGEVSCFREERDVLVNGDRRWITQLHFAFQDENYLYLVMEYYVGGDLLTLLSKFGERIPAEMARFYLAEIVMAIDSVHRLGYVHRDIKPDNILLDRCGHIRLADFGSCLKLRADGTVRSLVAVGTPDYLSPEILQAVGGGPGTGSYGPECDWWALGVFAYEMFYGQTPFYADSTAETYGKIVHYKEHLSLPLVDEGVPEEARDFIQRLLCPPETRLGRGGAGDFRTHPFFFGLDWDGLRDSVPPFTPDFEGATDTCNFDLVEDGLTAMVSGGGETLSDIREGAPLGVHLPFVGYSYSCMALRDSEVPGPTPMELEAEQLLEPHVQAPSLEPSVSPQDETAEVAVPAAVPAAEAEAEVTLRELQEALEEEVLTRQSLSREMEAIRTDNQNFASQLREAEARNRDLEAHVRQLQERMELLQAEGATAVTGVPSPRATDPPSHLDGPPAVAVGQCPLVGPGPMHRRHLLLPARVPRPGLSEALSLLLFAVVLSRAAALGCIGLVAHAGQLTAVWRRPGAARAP

[6] = target: T2, Serine/threonine-protein kinase D1 (Homo sapiens) (UniProt Q15139); experiment: Inhibition of human PRKD1 at 1.82 nM by HotSpot assay relative to control
T2 sequence (whole entry): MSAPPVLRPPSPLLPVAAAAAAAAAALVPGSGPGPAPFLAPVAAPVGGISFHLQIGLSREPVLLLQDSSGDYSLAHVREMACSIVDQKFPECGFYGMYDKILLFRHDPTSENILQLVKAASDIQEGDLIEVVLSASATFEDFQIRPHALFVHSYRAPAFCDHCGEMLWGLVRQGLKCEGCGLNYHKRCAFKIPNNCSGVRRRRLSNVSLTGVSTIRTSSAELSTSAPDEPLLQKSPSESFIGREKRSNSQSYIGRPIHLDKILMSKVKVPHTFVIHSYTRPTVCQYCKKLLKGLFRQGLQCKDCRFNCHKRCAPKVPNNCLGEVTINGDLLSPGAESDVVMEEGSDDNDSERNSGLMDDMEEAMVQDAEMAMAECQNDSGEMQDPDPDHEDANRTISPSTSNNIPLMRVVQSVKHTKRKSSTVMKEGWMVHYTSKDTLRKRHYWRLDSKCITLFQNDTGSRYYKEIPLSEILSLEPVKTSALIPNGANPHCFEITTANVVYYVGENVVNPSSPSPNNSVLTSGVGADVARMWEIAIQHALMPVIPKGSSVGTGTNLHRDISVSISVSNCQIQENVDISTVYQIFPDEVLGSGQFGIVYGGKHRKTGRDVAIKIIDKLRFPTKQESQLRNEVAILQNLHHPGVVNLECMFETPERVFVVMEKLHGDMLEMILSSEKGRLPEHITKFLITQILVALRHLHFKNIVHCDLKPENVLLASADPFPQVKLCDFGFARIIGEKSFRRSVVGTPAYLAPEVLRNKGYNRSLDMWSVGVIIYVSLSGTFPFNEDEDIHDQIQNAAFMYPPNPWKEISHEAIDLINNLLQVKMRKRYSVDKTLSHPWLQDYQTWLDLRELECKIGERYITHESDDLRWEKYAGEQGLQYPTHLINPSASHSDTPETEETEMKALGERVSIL

[7] = target: Ribosomal protein S6 kinase alpha-2 (Homo sapiens) (UniProt Q15349); experiment: Inhibition of human RSK3 at 1.82 nM by HotSpot assay relative to control
Ribosomal protein S6 kinase alpha-2 (Homo sapiens), sequence (Q15349 whole entry): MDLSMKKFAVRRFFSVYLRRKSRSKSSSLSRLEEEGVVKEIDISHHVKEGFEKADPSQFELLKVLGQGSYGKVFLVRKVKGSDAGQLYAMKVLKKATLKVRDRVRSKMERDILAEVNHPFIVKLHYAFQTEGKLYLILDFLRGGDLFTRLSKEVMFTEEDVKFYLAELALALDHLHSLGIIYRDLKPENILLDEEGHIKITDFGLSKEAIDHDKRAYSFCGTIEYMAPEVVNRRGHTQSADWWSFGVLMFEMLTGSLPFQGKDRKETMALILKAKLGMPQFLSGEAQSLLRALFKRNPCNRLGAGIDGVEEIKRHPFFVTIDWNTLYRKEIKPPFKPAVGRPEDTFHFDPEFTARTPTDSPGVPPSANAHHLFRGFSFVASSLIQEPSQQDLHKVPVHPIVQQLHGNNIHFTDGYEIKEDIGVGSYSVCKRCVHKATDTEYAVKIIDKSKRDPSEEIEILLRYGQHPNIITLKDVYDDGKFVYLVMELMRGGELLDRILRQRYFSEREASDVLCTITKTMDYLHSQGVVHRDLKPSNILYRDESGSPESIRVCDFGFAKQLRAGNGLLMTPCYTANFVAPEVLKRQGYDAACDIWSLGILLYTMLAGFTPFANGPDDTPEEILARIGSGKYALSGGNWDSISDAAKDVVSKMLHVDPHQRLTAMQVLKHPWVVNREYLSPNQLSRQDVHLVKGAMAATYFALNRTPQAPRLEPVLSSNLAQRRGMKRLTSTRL

[8] = target: T3, Serine/threonine-protein kinase STK11 (Homo sapiens) (UniProt Q15831); experiment: Inhibition of human LKB1 at 1.82 nM by HotSpot assay relative to control
T3 sequence (whole entry): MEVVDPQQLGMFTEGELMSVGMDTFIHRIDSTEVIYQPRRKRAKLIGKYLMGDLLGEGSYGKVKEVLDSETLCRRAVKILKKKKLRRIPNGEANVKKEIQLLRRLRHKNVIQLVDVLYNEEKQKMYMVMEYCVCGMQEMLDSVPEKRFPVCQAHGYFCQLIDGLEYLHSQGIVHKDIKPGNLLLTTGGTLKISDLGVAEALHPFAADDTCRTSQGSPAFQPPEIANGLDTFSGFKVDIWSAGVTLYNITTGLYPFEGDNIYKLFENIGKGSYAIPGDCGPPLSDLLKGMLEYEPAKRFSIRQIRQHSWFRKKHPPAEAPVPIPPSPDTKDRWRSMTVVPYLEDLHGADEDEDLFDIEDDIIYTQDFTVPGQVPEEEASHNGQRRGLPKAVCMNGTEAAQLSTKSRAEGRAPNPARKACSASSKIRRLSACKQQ

[9] = target: T4, Protein kinase C zeta type (Homo sapiens) (UniProt Q05513); experiment: Inhibition of human PKCzeta at 1.82 nM by HotSpot assay relative to control
T4 sequence (whole entry): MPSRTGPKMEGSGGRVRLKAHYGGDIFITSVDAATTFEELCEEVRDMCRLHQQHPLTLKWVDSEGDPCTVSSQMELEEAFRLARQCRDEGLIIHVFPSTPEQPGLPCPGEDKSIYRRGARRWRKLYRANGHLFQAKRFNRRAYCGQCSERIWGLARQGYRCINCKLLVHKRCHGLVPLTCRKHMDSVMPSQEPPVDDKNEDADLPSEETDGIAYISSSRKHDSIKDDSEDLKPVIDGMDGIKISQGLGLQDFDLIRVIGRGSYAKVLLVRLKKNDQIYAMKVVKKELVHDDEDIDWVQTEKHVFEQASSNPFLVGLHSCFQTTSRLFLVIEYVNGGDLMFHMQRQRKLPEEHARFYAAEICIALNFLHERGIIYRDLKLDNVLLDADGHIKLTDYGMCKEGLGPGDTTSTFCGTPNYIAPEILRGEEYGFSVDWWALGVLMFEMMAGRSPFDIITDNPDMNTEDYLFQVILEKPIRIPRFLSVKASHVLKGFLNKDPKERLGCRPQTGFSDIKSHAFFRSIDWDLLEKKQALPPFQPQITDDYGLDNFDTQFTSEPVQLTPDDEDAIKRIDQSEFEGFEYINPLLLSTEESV

MAP kinase-interacting serine/threonine-protein kinase 1 (Homo sapiens), sequence (Q9BUB5 whole entry, looked up): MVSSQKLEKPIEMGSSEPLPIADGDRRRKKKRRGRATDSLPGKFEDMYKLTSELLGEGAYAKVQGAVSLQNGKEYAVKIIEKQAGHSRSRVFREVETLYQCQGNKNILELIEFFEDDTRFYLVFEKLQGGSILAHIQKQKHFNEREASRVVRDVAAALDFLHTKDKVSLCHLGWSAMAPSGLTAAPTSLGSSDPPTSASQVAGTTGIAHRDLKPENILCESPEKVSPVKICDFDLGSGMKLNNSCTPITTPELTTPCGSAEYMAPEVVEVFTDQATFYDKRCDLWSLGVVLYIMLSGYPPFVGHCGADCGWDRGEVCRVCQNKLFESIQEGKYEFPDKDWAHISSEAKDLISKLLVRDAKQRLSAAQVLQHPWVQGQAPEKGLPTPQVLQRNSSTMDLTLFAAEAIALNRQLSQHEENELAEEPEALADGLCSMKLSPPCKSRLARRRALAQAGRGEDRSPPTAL
Tyrosine-protein kinase receptor UFO (Homo sapiens), sequence (P30530 whole entry): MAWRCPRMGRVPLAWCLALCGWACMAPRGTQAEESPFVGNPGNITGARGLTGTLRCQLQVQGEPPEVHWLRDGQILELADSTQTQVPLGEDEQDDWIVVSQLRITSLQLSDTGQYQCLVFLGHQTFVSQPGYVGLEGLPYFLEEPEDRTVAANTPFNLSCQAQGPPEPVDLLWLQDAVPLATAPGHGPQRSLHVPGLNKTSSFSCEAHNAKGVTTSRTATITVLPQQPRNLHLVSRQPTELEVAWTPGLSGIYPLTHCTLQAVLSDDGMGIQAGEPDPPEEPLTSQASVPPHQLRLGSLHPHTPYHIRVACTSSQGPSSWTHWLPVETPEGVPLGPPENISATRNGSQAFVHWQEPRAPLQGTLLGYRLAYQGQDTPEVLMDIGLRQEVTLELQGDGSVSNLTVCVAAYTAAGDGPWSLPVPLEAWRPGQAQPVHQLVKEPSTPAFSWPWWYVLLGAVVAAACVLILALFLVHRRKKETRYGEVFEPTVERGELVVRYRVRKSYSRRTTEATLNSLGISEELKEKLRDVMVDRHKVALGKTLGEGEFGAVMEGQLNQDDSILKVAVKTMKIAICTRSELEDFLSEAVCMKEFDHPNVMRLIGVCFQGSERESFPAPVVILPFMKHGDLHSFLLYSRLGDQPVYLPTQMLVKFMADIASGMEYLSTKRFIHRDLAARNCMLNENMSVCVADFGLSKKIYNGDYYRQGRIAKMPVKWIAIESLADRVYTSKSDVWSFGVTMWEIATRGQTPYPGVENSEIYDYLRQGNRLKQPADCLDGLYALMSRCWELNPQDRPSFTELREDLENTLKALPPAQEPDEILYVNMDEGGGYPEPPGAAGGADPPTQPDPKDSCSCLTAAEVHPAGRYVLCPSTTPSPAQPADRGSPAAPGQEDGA

Row | SMILES | inhibition [1] | inhibition [2] | inhibition [3] | inhibition [4] | inhibition [5] | inhibition [6] | inhibition [7] | inhibition [8] | inhibition [9]
1 | C[C@]1(O)C[C@@H](c2nc(-c3ccc4ccc(-c5ccccc5)nc4c3)c3c(N)nccn32)C1 | 3.94% | 0.3% | 1.32% | -1.6% | -3.25% | – | – | – | –
2 | C[C@@]1(C(=O)Nc2ccc(F)nc2)CCCN1c1nc(Nc2cc(C3CC3)n[nH]2)c2cccn2n1 | – | – | – | – | – | -5.1% | -2.19% | 4.47% | -1.74%
